The test concerns the target T1, TGM2 (in MC3T3-E1 cells) (Mus musculus, UniProt P21981).
T1 construct: native full-length protein in MC3T3-E1 pre-osteoblast cells
T1 sequence (P21981 2-686): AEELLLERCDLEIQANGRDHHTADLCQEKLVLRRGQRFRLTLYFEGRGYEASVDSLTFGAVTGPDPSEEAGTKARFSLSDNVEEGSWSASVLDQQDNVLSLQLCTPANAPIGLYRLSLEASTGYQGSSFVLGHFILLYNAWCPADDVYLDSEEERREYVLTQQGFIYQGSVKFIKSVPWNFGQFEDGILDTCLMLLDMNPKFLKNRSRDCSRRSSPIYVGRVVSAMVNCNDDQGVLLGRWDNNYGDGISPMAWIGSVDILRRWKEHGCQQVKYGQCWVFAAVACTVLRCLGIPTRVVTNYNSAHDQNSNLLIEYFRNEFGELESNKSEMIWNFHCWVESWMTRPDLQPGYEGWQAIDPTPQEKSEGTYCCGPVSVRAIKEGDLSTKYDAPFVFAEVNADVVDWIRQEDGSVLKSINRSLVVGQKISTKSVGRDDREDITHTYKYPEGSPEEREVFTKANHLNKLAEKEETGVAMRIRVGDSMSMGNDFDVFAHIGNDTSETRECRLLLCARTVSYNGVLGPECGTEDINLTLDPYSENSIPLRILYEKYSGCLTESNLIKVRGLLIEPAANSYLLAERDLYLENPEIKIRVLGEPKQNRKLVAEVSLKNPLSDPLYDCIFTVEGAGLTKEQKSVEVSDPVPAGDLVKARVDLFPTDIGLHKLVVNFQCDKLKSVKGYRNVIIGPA
As to the kind of experiment: CETSA; DARTS. The class given is cell-based.

These results are taken from publication PMC10288273, “Allosteric Activation of Transglutaminase 2 via Inducing an “Open” Conformation for Osteoblast Differentiation” (Advanced Science, 2023).

As for `C=C[C@@]1(C)CC(=O)[C@]2(O)[C@@]3(C)[C@@H](O)CCC(C)(C)[C@@H]3[C@H](O)[C@H](OC(C)=O)[C@@]2(C)O1` [Forskolin], the “thermal stabilisation (CETSA)” value is on record as “FSK enhanced the thermal stability of TGM2”.
